The source of these data is PubChem BioAssay (NCI).

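Cells were grown in 96-well plates and exposed to each compound for 48 hours at five concentrations; endpoints were interpolated linearly between bracketing concentrations, or set to the highest concentration if not reached. The concentration for 50% growth inhibition is given as GI50. TGI: total growth inhibition.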

Some test systems named below: COLO 205 colon; CCRF-CEM leukemia; RPMI-8226 leukemia; SNB-75 CNS; CAKI-1 renal; UO-31 renal; SK-MEL-5 melanoma; HT29 colon; HOP-92 NSCLC.
Assay in all cases: NCI anticancer screen, dose series, 48 h

With `CC1=NNC(=O)C2CCC(=O)N12` (configuration not stated), the TGI in the assay with COLO 205 colon, in the assay on CCRF-CEM leukemia, in the assay on RPMI-8226 leukemia, in the assay with SNB-75 CNS, in the assay on CAKI-1 renal and in the assay with UO-31 renal was > 100 µM each time. In addition, the TGI in the assay on SK-MEL-5 melanoma was > 100 µM.

Turning to `COc1cc(C(Cc2ccccc2)NC(C)=O)oc(=O)c1` (configuration not stated), the TGI in the assay on COLO 205 colon, with HT29 colon, in the assay on CCRF-CEM leukemia, with RPMI-8226 leukemia, in the assay on SNB-75 CNS and in the assay with CAKI-1 renal was > 100 µM each time. In addition, the TGI in the assay on UO-31 renal, with HOP-92 NSCLC and with SK-MEL-5 melanoma was > 100 µM throughout.

Consider `[N-]=[N+]=NC12CC3C4CC5CC3C(C1)C(C5)C4C2`, for which the TGI with COLO 205 colon, in the assay on HT29 colon, in the assay with CCRF-CEM leukemia, with RPMI-8226 leukemia, in the assay with SNB-75 CNS and with CAKI-1 renal was > 100 µM throughout. The TGI in the assay with UO-31 renal, in the assay on HOP-92 NSCLC and in the assay with SK-MEL-5 melanoma was > 100 µM throughout.

For `Cn1c2ccccc2c2c3c(c4c5cc(Br)ccc5n(C)c4c21)C(=O)N(O)C3=O`, the GI50 in the assay on CCRF-CEM leukemia is 32.3 nM; with SNB-75 CNS it was 59.5 nM; in the assay with HOP-92 NSCLC it was 180 nM; in the assay with SK-MEL-5 melanoma, 129 nM. For the same compound, the TGI turned out to be 0.185 µM in the assay with CCRF-CEM leukemia, 0.659 µM with SNB-75 CNS and 0.403 µM with SK-MEL-5 melanoma.

`CC(C)c1ccccc1NC(=O)CCc1n[nH]c(=S)o1`: the TGI in the assay on COLO 205 colon was 58.3 µM; in the assay with HT29 colon, > 100 µM; with CCRF-CEM leukemia, > 100 µM; in the assay with RPMI-8226 leukemia, > 72.1 µM; in the assay on SNB-75 CNS it was > 100 µM; in the assay with CAKI-1 renal, > 100 µM. Besides, the TGI with UO-31 renal, in the assay with HOP-92 NSCLC and in the assay with SK-MEL-5 melanoma was > 100 µM throughout.

On to `S=C(Nc1ccccc1)N(/N=C/C=C/c1ccccc1)c1nnc(-c2ccccc2)c(-c2ccccc2)n1`, for which the TGI with COLO 205 colon, in the assay with HT29 colon, in the assay with CCRF-CEM leukemia, in the assay on RPMI-8226 leukemia, in the assay on SNB-75 CNS and in the assay with CAKI-1 renal was > 100 µM throughout. The TGI is > 100 µM in the assay on UO-31 renal, 83.8 µM in the assay on HOP-92 NSCLC and > 100 µM in the assay on SK-MEL-5 melanoma.

For `CC(C)=CC/C=C(/C)[C@H]1CC[C@]2(C)[C@@H]1CC[C@@H]1[C@@]3(C)CCCNC(C)(C)[C@@H]3CC[C@]12C`, the GI50 in the assay with COLO 205 colon was 1800 nM; in the assay on HT29 colon it was 1710 nM; in the assay on CCRF-CEM leukemia, 2840 nM; in the assay on RPMI-8226 leukemia, 2120 nM; in the assay on SNB-75 CNS, 2560 nM; in the assay with CAKI-1 renal, 1850 nM. For the same compound, the figures for the GI50 in the assay on UO-31 renal, in the assay on HOP-92 NSCLC and in the assay with SK-MEL-5 melanoma were 10.1 µM, 1500 nM and 1910 nM, respectively. For the same compound, the TGI with COLO 205 colon was 3.53 µM; in the assay on HT29 colon it was 3.67 µM; in the assay on CCRF-CEM leukemia, 11.3 µM; with RPMI-8226 leukemia, 4.97 µM; with SNB-75 CNS it was 10.8 µM; in the assay on CAKI-1 renal, 3.93 µM. For the same compound, the TGI was determined as 23.4 µM in the assay on UO-31 renal, 3.58 µM with HOP-92 NSCLC and 4.3 µM in the assay with SK-MEL-5 melanoma.

As for `CCC[CH2][Sn]1([CH2]CCC)[O]N=C(c2ccccc2)C(c2ccccc2)[O]1` (configuration not stated), the GI50 was 1530 nM in the assay on COLO 205 colon; 2460 nM in the assay on HT29 colon; 290 nM with CCRF-CEM leukemia; 588 nM in the assay with RPMI-8226 leukemia; 1600 nM in the assay on SNB-75 CNS; 970 nM in the assay on CAKI-1 renal. Also, the values for the GI50 with UO-31 renal, with HOP-92 NSCLC and in the assay on SK-MEL-5 melanoma were 1.68 µM, 1540 nM and 1620 nM, respectively. Besides, the TGI with COLO 205 colon was found to be 2.92 µM; in the assay on HT29 colon, 5.4 µM; in the assay with CCRF-CEM leukemia it was 2.42 µM; in the assay on RPMI-8226 leukemia, 4.38 µM; in the assay on SNB-75 CNS, 4.1 µM; with CAKI-1 renal, 2.4 µM. For the same compound, the TGI in the assay on UO-31 renal worked out at 3.46 µM; with HOP-92 NSCLC, 2.96 µM; in the assay on SK-MEL-5 melanoma, 3.23 µM.

`Cn1c2c(c3ccccc31)C1CCCCCCC1C1C(=O)OC(=O)C21` (configuration not stated): the TGI with COLO 205 colon was > 100 µM; in the assay with HT29 colon, > 100 µM; in the assay with CCRF-CEM leukemia, 59 µM; with RPMI-8226 leukemia it was 61.2 µM; in the assay with SNB-75 CNS, > 100 µM; with UO-31 renal it was > 100 µM. Moreover, in the assay with SK-MEL-5 melanoma, the TGI is > 100 µM.

On to `O=[N+]([O-])c1ccc(C2=Nn3cnnc3SC2)o1`, for which the TGI with HT29 colon worked out at 28.2 µM; in the assay with CCRF-CEM leukemia it was 51.1 µM; with RPMI-8226 leukemia, 42.5 µM; in the assay on SNB-75 CNS, 51.7 µM; in the assay with UO-31 renal, 36.5 µM; with HOP-92 NSCLC it was 49.4 µM. This compound also displayed a TGI with SK-MEL-5 melanoma of 31.5 µM.

Take `COc1cccc(/C=C/c2cc(OC)c(OC)c(OC)c2)c1`: the TGI in the assay on COLO 205 colon was > 100 µM; with HT29 colon, > 100 µM; in the assay with CCRF-CEM leukemia, > 100 µM; with RPMI-8226 leukemia it was > 100 µM; in the assay on SNB-75 CNS it was 60.1 µM; in the assay with UO-31 renal, > 100 µM. Further, the TGI in the assay on HOP-92 NSCLC and in the assay with SK-MEL-5 melanoma was > 100 µM each time.

Regarding `CN(C)c1nc2ccccc2[nH]1`, the TGI in the assay with COLO 205 colon, with HT29 colon, in the assay with CCRF-CEM leukemia, with RPMI-8226 leukemia, in the assay with SNB-75 CNS and in the assay on CAKI-1 renal was > 100 µM in each case. The TGI with UO-31 renal, with HOP-92 NSCLC and in the assay on SK-MEL-5 melanoma was > 100 µM in each case.

Take `NNC(=S)N/N=C(\CC1OC(=O)c2ccccc21)c1ccccc1O` (configuration not stated): the TGI is > 100 µM in the assay with COLO 205 colon; > 100 µM in the assay on HT29 colon; > 100 µM with CCRF-CEM leukemia; 86.1 µM with SNB-75 CNS; > 100 µM with CAKI-1 renal; > 100 µM in the assay with UO-31 renal. Besides, the TGI in the assay with HOP-92 NSCLC and in the assay on SK-MEL-5 melanoma was > 100 µM throughout.

For `O=S1(=O)C[C@H](O)[C@H](O)CS1`, the TGI in the assay on COLO 205 colon, in the assay with HT29 colon, in the assay with RPMI-8226 leukemia, in the assay on SNB-75 CNS, with CAKI-1 renal and in the assay on UO-31 renal was > 100 µM each time. In addition, the TGI in the assay on HOP-92 NSCLC and in the assay on SK-MEL-5 melanoma was > 100 µM each time.

Regarding `Cc1cc([N+](=O)[O-])ccc1Nc1cccc(Cl)c1C`, the TGI in the assay on COLO 205 colon is 31.3 µM; in the assay with HT29 colon, 32 µM; in the assay with CCRF-CEM leukemia, 47.2 µM; with SNB-75 CNS it was 52.7 µM; in the assay on CAKI-1 renal it was 30.5 µM; in the assay on UO-31 renal it was 24.4 µM. Moreover, the TGI with SK-MEL-5 melanoma came out at 29.1 µM.

`CCCN=C(N)NC#N`: the TGI in the assay with COLO 205 colon was 32.9 µM; in the assay with HT29 colon it was > 100 µM; in the assay on RPMI-8226 leukemia, > 100 µM; with SNB-75 CNS, > 100 µM; in the assay on CAKI-1 renal, > 100 µM; in the assay on UO-31 renal, > 100 µM. Besides, the TGI in the assay with HOP-92 NSCLC and in the assay on SK-MEL-5 melanoma was > 100 µM each time.

`O=C(CCn1[nH]c(=O)c(Cl)c(Cl)c1=O)NO`: the TGI in the assay with COLO 205 colon, with HT29 colon, with CCRF-CEM leukemia, with RPMI-8226 leukemia, in the assay on SNB-75 CNS and with CAKI-1 renal was > 100 µM in each case. For the same compound, the TGI with UO-31 renal and in the assay with SK-MEL-5 melanoma was > 100 µM throughout.

In the case of `CC(C)(C)CC(C)(C)c1cc2c(O)c(c1)Cc1cc(C(C)(C)CC(C)(C)C)cc(c1O)Cc1cc(C(C)(C)CC(C)(C)C)cc(c1O)Cc1cc(C(C)(C)CC(C)(C)C)cc(c1O)C2`, the TGI in the assay on COLO 205 colon, in the assay with HT29 colon, in the assay with CCRF-CEM leukemia, in the assay on RPMI-8226 leukemia, with SNB-75 CNS and in the assay with UO-31 renal was > 100 µM throughout. Moreover, the TGI with HOP-92 NSCLC and in the assay on SK-MEL-5 melanoma was > 100 µM throughout.

As for `CN(C)/C=N/c1nc2c(ncn2C2OC(CO)C(O)C2O)c(=O)[nH]1` (configuration not stated), the TGI in the assay with COLO 205 colon, with HT29 colon, in the assay with RPMI-8226 leukemia, in the assay with SNB-75 CNS, with CAKI-1 renal and in the assay with UO-31 renal was > 100 µM throughout. The TGI with HOP-92 NSCLC and in the assay with SK-MEL-5 melanoma was > 100 µM each time.

In the case of `CN(C)c1ccc(C(C=C2c3ccccc3Sc3ccccc32)=C(C#N)C#N)cc1`, the TGI with COLO 205 colon is > 100 µM; in the assay with HT29 colon, > 100 µM; with CCRF-CEM leukemia it was > 100 µM; with RPMI-8226 leukemia, > 100 µM; in the assay on SNB-75 CNS, 89.9 µM; with CAKI-1 renal, > 100 µM. Also, the TGI in the assay with UO-31 renal and with SK-MEL-5 melanoma was > 100 µM each time.

Turning to `N#Cc1nc(Nc2cccc3ccccc23)sc1N`, the TGI in the assay on COLO 205 colon was 81.5 µM; in the assay with HT29 colon, > 100 µM; with RPMI-8226 leukemia it was 72 µM; in the assay with SNB-75 CNS, > 100 µM; in the assay with CAKI-1 renal, > 100 µM; in the assay with UO-31 renal, 49 µM. Besides, in the assay on HOP-92 NSCLC, the TGI was found to be 52.3 µM.

For the compound `COC(=O)c1cc2c(s1)C(=O)c1ccccc1-2`, the TGI with COLO 205 colon, in the assay with CCRF-CEM leukemia, with SNB-75 CNS, with CAKI-1 renal, in the assay on UO-31 renal and in the assay on HOP-92 NSCLC was > 100 µM each time. Further, in the assay with SK-MEL-5 melanoma, the TGI was > 100 µM.

As for `Cc1nn(-c2ccccc2)c2nc(N3CCOCC3)nnc12`, the TGI in the assay on COLO 205 colon, with HT29 colon, with CCRF-CEM leukemia, in the assay with RPMI-8226 leukemia, in the assay on SNB-75 CNS and in the assay with CAKI-1 renal was > 100 µM throughout. Moreover, the TGI with UO-31 renal and with SK-MEL-5 melanoma was > 100 µM in each case.
